What was measured:
Format in all cases: cell-based, human
[1] = tested on: A549 lung cancer cells; assay: Serum-stimulated ^3H-thymidine incorporation, A549; details: A549, 1% FBS, daily addition of 100 nM
Method: Unless otherwise stated, cells were grown in DMEM with 10% fetal bovine serum (FBS), 100 μg/mL penicillin and 100 units/mL streptomycin in a humidified 37° C. incubator gassed with 5% CO2 and 95% room air. Cells were grown to subconfluence in either 24-well cluster plates or 100 mm dishes and made quiescent by treatment for 48 h with serum-depleted growth media, prior to the experiments outlined below to measure cell growth (^3H-thymidine incorporation), cell signaling or apoptosis.

[2] = tested on: ZR-75-1 breast cancer cells
Method: Unless otherwise stated, cells were grown in DMEM with 10% fetal bovine serum (FBS), […] in a humidified 37° C. incubator gassed with 5% CO2 and 95% room air. Cells were grown to subconfluence in either 24-well cluster plates or 100 mm dishes and made quiescent by treatment for 48 h with serum-depleted growth media, prior to the experiments outlined below to measure cell growth (^3H-thymidine incorporation), cell signaling or apoptosis.
[…] Subsequently, the cell monolayer was washed with cold phosphate-buffered saline (PBS; 50 mM NaPO4, 120 mM NaCl, pH=7.2). The adherent cells were precipitated with cold 10% TCA (4° C. for 30 min) and dissolved in 0.2% SDS in 0.1 N NaOH. Incorporated ^3H-thymidine was determined by liquid scintillation spectrometry, as previously described (Freeman, E. J. et al., Hypertension, 1996, 28:104-108). Growth inhibition was defined as a reduction in the amount of ^3H-thymidine incorporation as compared to the mitogen-stimulated controls.

[3] = tested on: poly(ADP-ribose) polymerase (PARP); assay: Cleaved PARP (caspase-3 cleavage product) in serum-stimulated SK-LU-1 cells; details: SK-LU-1, 10 nM, 4 to 8 hour treatment
Method: Proteins were separated electrophoretically on SDS polyacrylamide gels, transferred to polyvinyl membranes, and incubated with primary antibodies to proteins of interest. Appropriate horseradish peroxidase (HRP)-conjugated second antibodies were added and immunoreactive products visualized using the enhanced chemoluminescence reagents from Amersham. The density of each immunoreactive product was quantified using the MCID imaging system. Antibodies to proteins that participate in cell signaling, apopotosis, and regulation of the cell cycle are commercially available from a variety of sources.
Since caspase-3 is activated during apoptosis, an increase in the generation of its […] can be a measure of apoptosis.

SMILES: CC[C@H](C)[C@H](NC(=O)[C@H](Cc1ccc(O)cc1)NC(=O)[C@@H](NC(=O)[C@H](CCCNC(=N)N)NC(=O)[C@@H](N)CC(=O)O)C(C)C)C(=O)N[C@@H](Cc1c[nH]cn1)C(=O)N1CCC[C@H]1C(=O)O [Ang-(1-7), Asp-Arg-Val-Tyr-Ile-His-Pro]
- ^3H-thymidine incorporation over time of treatment [1]: progressively reduced
- IC50 ([2]; 48 h): 0.02 nM
- maximal inhibition ([2]; ZR-75-1): 37.2±6.1
- ^3H-thymidine incorporation over time of treatment ([2]; ZR-75-1, 1% FBS, daily addition of 100 nM): progressively reduced
- amount of cleaved PARP [3]: increase

From patent US20140296143A1, “Angiotensin-(1-7) As A Chemoprevention Agent” (Wake Forest Innovations, priority 2008, published 2014)
